How the values were obtained:
Assay in all cases: relative viability (nuclei count vs DMSO), 5 days (fraction); higher = more cells survive
[1] = compound: CC1=CC(=NN1)NC2=CC(=NC(=N2)/C=C/C3=CC=CC=C3)N4CCN(CC4)C + COc1cc2c(Oc3ccc(NC(=O)C4(C(=O)Nc5ccc(F)cc5)CC4)cc3F)ccnc2cc1OCCCN1CCOCC1 [Foretinib] (partner 0.25 µM)
Summary of the method: (§1)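 Lung cancer cell lines in 1536-well plates were dosed by pin tool the day after seeding, either with one drug alone or with a fixed anchor-drug dose plus five library-drug doses (not always all listed) in √10 steps. After 5 days, cells were fixed and their nuclei stained in one step (final 0.05% Triton X-100, 1% formaldehyde, 1 ug/ml Hoechst), then counted on 4× images. Relative viability is the nuclei count in treated wells divided by that in vehicle wells. Values are medians of duplicate plates.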

Bortezomib + Crizotinib = compound: CC(C)C[C@H](NC(=O)[C@H](Cc1ccccc1)NC(=O)c1cnccn1)B(O)O [Bortezomib] + C[C@@H](Oc1cc(-c2cnn(C3CCNCC3)c2)cnc1N)c1c(Cl)ccc(F)c1Cl [Crizotinib] (partner 1 µM)
Summary of the method: as §1

Obatoclax + Pictilisib = compound: COC1=CC(c2cc3ccccc3[nH]2)=N/C1=C\c1[nH]c(C)cc1C [Obatoclax] + CS(=O)(=O)N1CCN(Cc2cc3nc(-c4cccc5[nH]ncc45)nc(N4CCOCC4)c3s2)CC1 [Pictilisib] (partner 1 µM)
Summary of the method: as §1

Bortezomib + OSI-027 = compound: CC(C)C[C@H](NC(=O)[C@H](Cc1ccccc1)NC(=O)c1cnccn1)B(O)O [Bortezomib] + COc1cccc2cc(-c3nc([C@H]4CC[C@H](C(=O)O)CC4)n4ncnc(N)c34)[nH]c12 [OSI-027] (partner 0.5 µM)
Summary of the method: as §1

Cell Line	relative viability ([1]; first compound 0.08 µM)	relative viability ([1]; first compound 0.253 µM)	relative viability ([1]; first compound 0.8 µM)	relative viability ([1]; first compound 2.53 µM)	relative viability ([1]; first compound 8 µM)	relative viability (Bortezomib + Crizotinib; first compound 0.000632 µM)	relative viability (Bortezomib + Crizotinib; first compound 0.002 µM)	relative viability (Bortezomib + Crizotinib; first compound 0.006325 µM)	relative viability (Bortezomib + Crizotinib; first compound 0.02 µM)	relative viability (Obatoclax + Pictilisib; first compound 0.01 µM)	relative viability (Obatoclax + Pictilisib; first compound 0.03162 µM)	relative viability (Obatoclax + Pictilisib; first compound 0.1 µM)	relative viability (Obatoclax + Pictilisib; first compound 0.3162 µM)	relative viability (Obatoclax + Pictilisib; first compound 1 µM)	relative viability (Bortezomib + OSI-027; first compound 0.0002 µM)	relative viability (Bortezomib + OSI-027; first compound 0.000632 µM)	relative viability (Bortezomib + OSI-027; first compound 0.002 µM)	relative viability (Bortezomib + OSI-027; first compound 0.006325 µM)	relative viability (Bortezomib + OSI-027; first compound 0.02 µM)	relative viability (Bortezomib + Crizotinib; first compound 0.0002 µM)
LC-2-ad	0.875	0.942	0.753	0.413	0.204	0.476	0.403	0.291	0.19	0.497	0.563	0.602	0.357	0.154	0.76	0.621	0.986	0.209	0.174	
NCI-H838	0.99	1.14	0.965	0.798	0.131	0.811	0.916	0.348	0.123	0.52	0.508	0.421	0.35	0.247	0.355	0.363	0.44	0.178	0.131	0.822
LCLC-97TM1	0.911	0.954	0.961	0.296	0.132	0.329	0.111	0.114	0.118	0.18	0.201	0.325	0.139	0.154	0.475	0.336	0.583	0.233	0.129	0.4
HCC-15	1.06	1.11	0.839	0.196	0.0908	0.825	0.904	0.46	0.0815	0.737	0.658	0.744	0.686	0.471	0.677	0.707	0.667	0.0893	0.0735	0.784
CAL-12T	1.09	1.17	0.908	0.293	0.162	0.551	0.61	0.241	0.1	0.395	0.472	0.396	0.223	0.395	0.757	0.578	0.754	0.165	0.129	0.888
NCI-H727	0.823	0.916	0.679	0.512	0.272	0.864	0.91	0.155	0.0951	0.33	0.456	0.701	0.339	0.253	0.557	0.515	0.494	0.467	0.378	0.774
ABC-1	1.01	1.13	0.956	0.195	0.228	0.693	0.22	0.178	0.195	0.72	0.929	0.737	0.468	0.26	0.476	0.296	0.193	0.183	0.2	1.1
NCI-H2023	0.719	0.974	0.832	0.362	0.0501	0.718	0.598	0.146	0.0674	0.29	0.22	0.265	0.151	0.0879	0.464	0.373	0.43	0.0814	0.0616	0.606
NCI-H358	0.705	0.886	0.307	0.145	0.0554	0.56	0.503	0.126	0.113	0.322	0.297	0.261	0.288	0.23	0.849	0.547	0.703	0.0722	0.0716	0.63
SW 1573	0.847	0.993	1.1	0.536	0.151	0.82	0.631	0.181	0.0539	0.466	0.539	0.506	0.44	0.519	0.658	0.665	0.234	0.0635	0.0625	0.851
NCI-H1993	0.754	0.911	0.763	0.594	0.447	0.974	0.847	0.342	0.506	0.804	0.833	0.842	1.02	0.733	0.508	0.552	0.546	0.47	0.53	0.876
NCI-H661	0.997		1.01	0.576	0.362	1.03	1.16	0.82	0.269	0.392	0.363	0.33		0.451	0.659	0.658	0.688	0.33	0.183	1.1
UMC-11	1.06	0.908	0.466	0.17	0.13	0.63	0.591	0.225	0.0917	0.849	0.819	0.806	0.645	0.298	0.461	0.472	0.493	0.325	0.148	0.503
NCI-H520	0.669	0.843	0.788	0.534	0.185	0.759	0.894	0.102	0.102	0.3	0.336	0.318	0.268	0.245	0.193	0.235	0.196	0.272	0.223	0.913
ChaGo-K-1	0.952	0.915	0.79	0.353	0.186		1.11	0.304	0.236	0.77	0.504		0.675	0.877	0.576	0.539	0.623	0.48	0.149	
NCI-H2085	0.972	1.04	0.842	0.552	0.227	0.988	0.757	0.188	0.217	0.446	0.433	0.483	0.338	0.242	0.684	0.675	0.787	0.286	0.204	0.814

Cell Line	relative viability ([1]; first compound 0.08 µM)	relative viability ([1]; first compound 0.253 µM)	relative viability ([1]; first compound 0.8 µM)	relative viability ([1]; first compound 2.53 µM)	relative viability ([1]; first compound 8 µM)	relative viability (Bortezomib + Crizotinib; first compound 0.000632 µM)	relative viability (Bortezomib + Crizotinib; first compound 0.002 µM)	relative viability (Bortezomib + Crizotinib; first compound 0.006325 µM)	relative viability (Bortezomib + Crizotinib; first compound 0.02 µM)	relative viability (Obatoclax + Pictilisib; first compound 0.01 µM)	relative viability (Obatoclax + Pictilisib; first compound 0.03162 µM)	relative viability (Obatoclax + Pictilisib; first compound 0.1 µM)	relative viability (Obatoclax + Pictilisib; first compound 0.3162 µM)	relative viability (Obatoclax + Pictilisib; first compound 1 µM)	relative viability (Bortezomib + OSI-027; first compound 0.0002 µM)	relative viability (Bortezomib + OSI-027; first compound 0.000632 µM)	relative viability (Bortezomib + OSI-027; first compound 0.002 µM)	relative viability (Bortezomib + OSI-027; first compound 0.006325 µM)	relative viability (Bortezomib + OSI-027; first compound 0.02 µM)	relative viability (Bortezomib + Crizotinib; first compound 0.0002 µM)
NCI-H1651	0.732	0.899	0.913	0.447	0.162	0.837	0.816	0.778	0.141	0.58	0.567	0.634	0.256	0.188	0.661	0.641	0.416	0.109	0.11	0.805
RERF-LC-KJ	0.846	0.93	0.824	0.744	0.586	0.85	0.84	0.271	0.178	0.543	0.587	0.538	0.513	0.334	0.581	0.547	0.555	0.216	0.24	0.846
NCI-H1755	0.9	0.962	0.866	0.622	0.297	0.828	0.877	0.196	0.156	0.475	0.383	0.386	0.357	0.269	0.706	0.568	0.68	0.27	0.228	0.866
NCI-H2170	1.02	0.981	0.95	0.774	0.183	1.02	1.11	0.233	0.18	0.369	0.278	0.316	0.334	0.295	0.688	0.463	0.69	0.566	0.182	1.03
NCI-H2126	1.06	1.09	1.19	1.03	0.587	0.993	1.08	0.957	0.195	0.524	0.464	0.554	0.481	0.482	0.737	0.652	0.622	0.62	0.663	0.991
EPLC-272H	0.639	0.708	0.4	0.171	0.0935		0.972	0.584	0.07	0.338	0.324	0.315	0.273	0.343	0.306	0.282	0.286	0.125	0.106	
NCI-H1975	0.928	1.02	0.795	0.326	0.128	0.883	0.192	0.128	0.127	0.299	0.313	0.258	0.292	0.199	0.674	0.624	0.196	0.111	0.106	0.944
NCI-H3122	0.957	0.928	0.965	0.873	0.383	0.264	0.287	0.275	0.182	0.575	0.634	0.767	0.615	0.497	0.993	1.03	0.935	0.206	0.133	0.252
COR-L 105	0.841	1.47	1.02	0.334	0.215	0.741	0.577	0.206	0.215	0.407	0.47	0.495	0.328	0.286	0.747	0.606	0.456	0.316	0.272	0.673
BEN	0.639	0.675	0.715	0.377	0.182	0.821	0.58	0.447	0.134	0.534	0.57	0.447	0.54	0.587	0.302	0.288	0.28	0.259	0.167	0.78
NCI-H1915	1.01	1.13	1.06	0.817	0.386	0.909	0.694	0.435	0.0428	0.967	0.823	0.968	0.989	0.933	0.582	0.507	0.613	0.186	0.0754	0.877
NCI-H1650	1.07	1.4	1.33	0.153	0.133	0.93	0.158	0.124	0.147	0.572	0.749	0.571	0.412	0.315	0.657	0.383	0.205	0.132	0.133	0.973
NCI-H2009	1.22	1.22	1.23	0.493	0.217	1.06	0.956	0.329	0.0389	0.927	0.936	0.706	0.281	0.228	0.664	0.585	0.486	0.0717	0.084	0.992
COR-L23	0.967	1.01	0.904	0.211	0.107	0.581	0.595	0.0447	0.0472	0.792	0.946	0.737	0.252	0.154	0.808	0.755	0.58	0.0553	0.0549	0.669
NCI-H460	1	1.1	1.04	0.477	0.0228	0.832	0.927	0.0481	0.0102	0.401	0.294	0.136	0.344	0.329	0.561	0.478	0.64	0.126	0.021	0.979
LCLC-103H	0.76	0.93	0.639	0.305	0.154	1.04	0.997	0.756	0.207	0.602	0.565	0.719	0.612	0.65	0.482	0.511	0.492	0.201	0.14	1.04
